Values quoted from earlier work in US20180125772A1, “Oral Care Compositions” (Colgate-Palmolive Company, priority 2016, published 2018).

Settings: aqueous solution, pH of no net charge

## NCCCC[C@H](N)C(=O)O [lysine]
  isoelectric point: 9.7 pH
